Measured values as given in patent publication US20250298027A1, “METHOD OF EVALUATING SMALL MOLECULE DISTRIBUTION USING TELLUROPHENE ANALOGUES” (THE GOVERNING COUNCIL OF THE UNIVERSITY OF TORONTO, priority 2022, published 2025).

What was measured:
[1] = system: HL-60 cells; test: WST-1 viability assay in HL-60 cells; format: cell-based; details: Homo sapiens, HL-60, 24 h, read-out: inhibition of proliferation of HL-60 cells
Procedure: The toxicity of 1 was compared to teniposide in HL-60 cells after incubation for 24 hours using a WST-1 viability assay.
WST-1 metabolic cytotoxicity assay: HL-60 cells (ATCC® CCL-240TM) were maintained in DMEM media with 2 mM L-glutamine (Gibco) supplemented with 20% calf serum and 100× dilution of penicillin-streptomycin solution (Gibco). Cells were maintained at 37° C. in a humidified atmosphere of 5% CO2 in air. HL-60 cells (100 pL) were seeded into a 96 well clear at a density of 5×10^5 cells/mL. Cells were treated with either DMSO or appropriate inhibitor from DMSO stocks. […] Cells were incubated for 24 h at 37° C. under a 5% CO2 atmosphere. WST-1 reagent (10 pL; Roche Diagnostics, 05015944001) was added to each well and gently mixed by pipetting. Cells were incubated for 1 h at 37° C. under 5% CO2 atmosphere. UV-vis absorbance measurements of each well at 450 nm was recorded using a TECAN Safire 2 plate reader. Data was background corrected against wells that contained cell growth media without cells and WST-1. Experiment was performed in triplicate.

[2] = system: PANC-1 cells; test: alamarBlue viability assay in PANC-1 cells; format: cell-based, Human; details: maximum dose of 25 μM, 72 hours exposure
Procedure: Similarly, PANC1 cells were characterized for later in vivo experiments. Using an alamarBlue viability assay and a proliferative assay, PANC-1 cells were incubated with 1 or teniposide.
AlamarBlue assay: PANC-1 cells were seeded into black, clear-bottom 96-well assay plates (Corning; CLS3603) and incubated for 24 hours. The medium was replaced with […] of teniposide or compound 1. After 72 hours exposure to drug, alamarBlue (Thermo Fisher Scientific; DAL1100) cell viability reagent was added and incubated for 4 hours at 37° C. Fluorescence intensity was measured using an excitation wavelength of 560 nm and an emission of 590 nm. Cell viability was calculated by normalizing to an untreated control.

[3] = IMC analysis of tellurium in PANC-1 xenograft tumour sections
Excerpt: For IMC™ analysis, the initial objective was to visualize tellurium signal distribution in tumour sections and subsequently measure relative tellurium content in individual cells. Tumour sections were dewaxed, rehydrated and washed. Slides then were stained with Ir-intercalator to visualize cell nuclei, and then imaged by IMC™. The ^125Te isotope was visualised. […] Without wishing to be bound by theory, it was hypothesized that the processing of the FFPE tissues contributes to loss of tellurium signal as the teniposide interaction with the cells is largely non-covalent, thus the multiple wash steps required for dewaxing (xylene and ethanol washes) might have removed bound 1. To reduce the number of tissue processing steps, snap frozen samples prepared from the same tumours were sectioned and analyzed by IMC™.
To determine the corresponding concentration of Te present in the sample a set of standards containing increasing concentrations of Te were analyzed by IMC™. Based on the total counts present in each standard Te spot a count/Te atom constant was calculated (FIG. 8E).
Generation of murine PANC-1 xenograft model: All 6-week-old female NOD SCID mice (Charles River (Wilmington, MA) were maintained under specific pathogen-free (SPF) conditions at the Princess Margaret Cancer Centre (PMCC) facility. All animal experiments in this study were performed in accordance with the Animal Research Committee guidelines of the University Health Network institution. The subcutaneous PANC-1 xenograft mice were generated as described previously in Telox studies. The vehicle was prepared as follows: 30 mg benzyl alcohol, 60 mg N,N-dimethylacetamide, 500 mg purified Cremophor EL (Kolliphor EL), and 2.1 mL dehydrated alcohol were combined in a vial. The solution was topped with distilled water for a final volume of 5 mL. The pH of the clear solution is adjusted to pH ˜5 with maleic acid. For injections, drug was diluted with vehicle for a final concentration of 10 mg/mL and administered at 20 mg/kg by I.P. The mice were maintained in three groups; group 1 mice were injected with teniposide, group 2 received 1, and group 3 with normal saline. After 2 hours, mice were scarified, and tumors were extracted. […]

COc1cc([C@@H]2c3cc4c(cc3[C@@H](OC3OC5COC(c6ccc[te]6)OC5C(O)C3O)[C@H]3COC(=O)C23)OCO4)cc(OC)c1O (stereo partly drawn) [Compound 1, Tellurium-labelled teniposide]
inhibition at 50 µM [1]: ≤ 60%
loss of cell viability in PANC-1 cells [2]: almost complete loss of cell viability
^125Te signal in snap frozen tumour sections by IMC ([3]; 20 mg/kg IP, 2 h before sacrifice, frozen sections): signals were observed
Te signal in FFPE tumour sections by IMC ([3]; 20 mg/kg IP, 2 hours, FFPE sections, ^125Te): no Te signal above background
Te signal in samples collected at later timepoints after dosing ([3]; frozen sections, later timepoints): not observed
average concentration in the tissue ([3]; frozen tumour sections, at the time of analysis, no precise value): low tens
